Measured values reported in patent publication US11986471B2, “Compounds and methods of use” (Tango Therapeutics, Inc., priority 2018, dated 2024).

What was measured:
PRMT5 [1] = biological target: T1, PRMT5 (Homo sapiens, UniProt O14744); experiment: PRMT5 IC50 assay in the presence of SAM as cofactor; type: biochemical
T1 construct: purchased Viva (custom protein)
Procedure, shortened: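 Enzyme: human PRMT5. Conditions: plus SAM, plus MTA, or cofactor-free. Output: IC50 (μM); Ki via IC50/1.5 (SAM) or IC50/13.5 (MTA).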

HAP1 MTAP-deleted = experiment: SDMA in-cell western assay, HAP1 MTAP-deleted cell line; type: cell-based; settings: for IC50: Homo sapiens, HAP1 MTAP-deleted cell line; for MTAP Intact/Deleted Ratio: IC50 ratio HAP1 MTAP-intact / HAP1 MTAP-deleted
Procedure, shortened: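 In-cell western for SDMA marks; MTAP-deleted (null) HAP1 background; values given as IC50.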

PRMT5 [2] = biological target: T1, PRMT5; experiment: PRMT5 IC50 assay with no cofactor; type: biochemical
Procedure, shortened: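 IC50 against PRMT5 determined with SAM as cofactor, with no cofactor, and with MTA as cofactor. Ki derived as IC50/1.5 for the SAM assay and IC50/13.5 for the MTA assay; SAM Ki to MTA Ki ratio also reported.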

PRMT5 [3] = biological target: T1, PRMT5; experiment: PRMT5 IC50 assay in the presence of MTA as cofactor; type: biochemical; settings: for IC50: PRMT5, MTA as cofactor
Procedure, shortened: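 Three cofactor conditions tested for PRMT5 inhibition: none, MTA and SAM, each giving an IC50. For conversion to Ki, the MTA-condition IC50 is divided by 13.5 and the SAM-condition IC50 by 1.5, and the two Ki values are expressed as a SAM/MTA ratio.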

HAP1 MTAP-intact = experiment: SDMA in-cell western assay, HAP1 MTAP-intact cell line; type: cell-based; settings: Homo sapiens
Procedure, shortened: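 Using an MTAP-isogenic HAP1 cell pair, inhibition of SDMA formation is read by in-cell western and expressed as IC50. MTAP-selectivity is assigned where the ratio between lines reaches 3 fold or greater.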

[4] = ratio between Ki in the presence of SAM and Ki in the presence of MTA
[5] = ratio between the Ki in the presence of SAM and the Ki in the presence of MTA

T1 sequence (O14744 whole entry): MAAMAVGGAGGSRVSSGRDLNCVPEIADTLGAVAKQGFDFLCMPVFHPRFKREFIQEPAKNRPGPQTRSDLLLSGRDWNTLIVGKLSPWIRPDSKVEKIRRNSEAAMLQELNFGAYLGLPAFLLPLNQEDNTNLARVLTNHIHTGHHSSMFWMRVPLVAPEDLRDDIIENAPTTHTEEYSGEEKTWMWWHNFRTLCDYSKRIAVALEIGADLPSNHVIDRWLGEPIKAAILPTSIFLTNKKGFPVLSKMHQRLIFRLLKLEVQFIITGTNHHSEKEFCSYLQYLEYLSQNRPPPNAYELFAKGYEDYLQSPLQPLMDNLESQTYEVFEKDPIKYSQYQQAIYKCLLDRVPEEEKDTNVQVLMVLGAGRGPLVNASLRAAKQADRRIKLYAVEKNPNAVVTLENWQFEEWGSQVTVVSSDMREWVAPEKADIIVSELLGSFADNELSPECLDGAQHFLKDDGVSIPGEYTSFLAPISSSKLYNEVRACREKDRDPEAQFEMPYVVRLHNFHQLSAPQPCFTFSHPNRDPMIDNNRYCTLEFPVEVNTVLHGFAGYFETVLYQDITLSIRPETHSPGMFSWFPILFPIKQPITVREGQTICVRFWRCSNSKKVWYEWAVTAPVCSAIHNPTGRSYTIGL
T1 sequence (Q9BQA1 whole entry partner): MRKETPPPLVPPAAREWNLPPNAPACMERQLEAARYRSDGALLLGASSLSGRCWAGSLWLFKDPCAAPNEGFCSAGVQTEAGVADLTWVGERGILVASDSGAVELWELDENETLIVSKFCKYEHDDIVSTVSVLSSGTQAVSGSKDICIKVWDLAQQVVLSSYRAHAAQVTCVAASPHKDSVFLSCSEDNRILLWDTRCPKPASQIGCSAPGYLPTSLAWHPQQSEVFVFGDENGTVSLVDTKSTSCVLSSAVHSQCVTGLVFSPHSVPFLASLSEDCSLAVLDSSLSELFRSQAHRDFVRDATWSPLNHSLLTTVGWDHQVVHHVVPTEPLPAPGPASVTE

SMILES | IC50 (PRMT5 [1]) [nM] | IC50 (HAP1 MTAP-deleted) [nM] | MTAP Intact/Deleted Ratio (HAP1 MTAP-deleted) | IC50 (PRMT5 [2]; read-out: No Co-factor IC50) [nM] | IC50 (PRMT5 [3]) [nM] | SAM/MTA Ratio (PRMT5 [3]; [4]) | IC50 (HAP1 MTAP-intact) [nM] | IC50 (PRMT5 [2]) [nM] | SAM/MTA Ratio (PRMT5 [3]; [5])
CC(C)(C)c1cc(C(=O)NC[C@H](O)CN2CCc3cc(OCc4cnco4)ccc3C2)cc(NC2CCC2)n1 [Compound 308, (S)-2-(tert-butyl)-6-(cyclobutylamino)-N-(2-hydroxy-3-(6-(oxazol-5-ylmethoxy)-3,4-dihydroisoquinolin-2(1H)-yl)propyl)isonicotinamide] | 500 to 5000 | ≥ 10000 | C* (an IC50 ratio of less than 3 fold between the IC50 in the HAP1 MTAP-intact cell line and the HAP1 MTAP-deleted cell line) | ≥ 5000 | 500 to 5000 | A (a Ki ratio greater than or equal to 10 fold between the Ki in the presence of SAM and the Ki in the presence of MTA) | ≥ 10000 | – | –
CC(=O)N1CC(Nc2cc(C(=O)NC[C@H](O)CN3CCc4c(ccc(OCc5cnco5)c4Cl)C3)nc(N3CCOCC3)n2)C1 [Compound 352, (S)-6-((1-acetylazetidin-3-yl)amino)-N-(3-(5-chloro-6-(oxazol-5-ylmethoxy)-3A-dihydroisoquinolin-2(1H)-yl)-2-hydroxypropyl)-2-morpholinopyrimidine-4-carboxamide] | 50 to 500 | 1000 to 10000 | C* (an IC50 ratio of less than 3 fold between the IC50 in the HAP1 MTAP-intact cell line and the HAP1 MTAP-deleted cell line) | 500 to 5000 | 50 to 500 | A (a Ki ratio greater than or equal to 10 fold between the Ki in the presence of SAM and the Ki in the presence of MTA) | ≥ 10000 | – | –
CCCN(C)c1nc(NC2COC2)cc(C(=O)NC[C@H](O)CN2CCc3cc(OCc4cnco4)ccc3C2)n1 [Compound 294, (S)—N-(2-hydroxy-3-(6-(oxazol-5-ylmethoxy)-3,4-dihydroisoquinolin-2(1H)-yl)propyl)-2-(methyl(propyl)amino)-6-(oxetan-3-ylamino)pyrimidine-4-carboxamide] | 50 to 500 | < 1000 | C* (an IC50 ratio of less than 3 fold between the IC50 in the HAP1 MTAP-intact cell line and the HAP1 MTAP-deleted cell line) | 500 to 5000 | 50 to 500 | A (a Ki ratio greater than or equal to 10 fold between the Ki in the presence of SAM and the Ki in the presence of MTA) | 1000 to 10000 | – | –
Cc1ncoc1COc1ccc2c(c1C)CCN(C[C@@H](O)CNC(=O)c1ccc(OC3CCN(Cc4ccncc4)CC3)cc1)C2 [Compound 440, N-[(2S)-2-hydroxy-3-{5-methyl-6-[(4-methyl-1,3-oxazol-5-yl)methoxy]-1,2,3,4-tetrahydroisoquinolin-2-yl}propyl]-4-({1-[(pyridin-4-yl)methyl]piperidin-4-yl}oxy)benzamide] | 50 to 500 | 1000 to 10000 | B* (an IC50 ratio greater than or equal to 3 fold but lower than 10 fold between the IC50 in the HAP1 MTAP-intact cell line and the HAP1 MTAP-deleted cell line) | – | 50 to 500 | – | ≥ 10000 | 500 to 5000 | A (a Ki ratio greater than or equal to 10 fold between the Ki in the presence of SAM and the Ki in the presence of MTA)
CCCC(=O)N1CC(Nc2cc(C(=O)NC[C@H](O)CN3CCc4c(ccc(OCc5cnco5)c4C)C3)ccn2)C1 [Compound 551, (S)-2-((1-butyrylazetidin-3-yl)amino)-N-(2-hydroxy-3-(5-methyl-6-(oxazol-5-ylmethoxy)-3,4-dihydroisoquinolin-2(1H)-yl)propyl)isonicotinamide] | 50 to 500 | ≥ 10000 | C* (an IC50 ratio of less than 3 fold between the IC50 in the HAP1 MTAP-intact cell line and the HAP1 MTAP-deleted cell line) | – | 50 to 500 | – | ≥ 10000 | 500 to 5000 | A (a Ki ratio greater than or equal to 10 fold between the Ki in the presence of SAM and the Ki in the presence of MTA)
O=C(NC[C@H](O)CN1CCc2cc(OCc3c[nH]nn3)ccc2C1)c1ccnc(NC2CCC2)c1 [Compound 207, (S)—N-(3-(6-((1H-1,2,3-triazol-4-yl)methoxy)-3,4-dihydroisoquinolin-2(1H)-yl)-2-hydroxypropyl)-2-(cyclobutylamino)isonicotinamide] | 500 to 5000 | < 1000 | C* (an IC50 ratio of less than 3 fold between the IC50 in the HAP1 MTAP-intact cell line and the HAP1 MTAP-deleted cell line) | ≥ 5000 | 500 to 5000 | A (a Ki ratio greater than or equal to 10 fold between the Ki in the presence of SAM and the Ki in the presence of MTA) | < 1000 | – | –
CN1CCN(c2cc(C(=O)NC[C@H](O)CN3CCc4cc(OCc5cnco5)ccc4C3)cc(NC3CCC3)n2)CC1 [Compound 448] | 50 to 500 | < 1000 | C* (an IC50 ratio of less than 3 fold between the IC50 in the HAP1 MTAP-intact cell line and the HAP1 MTAP-deleted cell line) | – | 50 to 500 | – | < 1000 | 500 to 5000 | A (a Ki ratio greater than or equal to 10 fold between the Ki in the presence of SAM and the Ki in the presence of MTA)
CN(C)CCOc1cc(C(=O)NC[C@H](O)CN2CCc3cc(OCc4cnco4)ccc3C2)cc(NC2CCC2)n1 [Compound 315, (S)-2-(cyclobutylamino)-6-(2-(dimethylamino)ethoxy)-N-(2-hydroxy-3-(6-(oxazol-5-ylmethoxy)-3,4-dihydroisoquinolin-2(1H)-yl)propyl)isonicotinamide] | 50 to 500 | < 1000 | C* (an IC50 ratio of less than 3 fold between the IC50 in the HAP1 MTAP-intact cell line and the HAP1 MTAP-deleted cell line) | 500 to 5000 | < 50 | A (a Ki ratio greater than or equal to 10 fold between the Ki in the presence of SAM and the Ki in the presence of MTA) | 1000 to 10000 | – | –
COCCN(C)c1cc(C(=O)NC[C@H](O)CN2CCc3c(ccc(OCc4ocnc4C)c3C)C2)cc(NC2CCN(C(C)=O)CC2)n1 [Compound 592] | 50 to 500 | < 1000 | A* (an IC50 ratio greater than or equal to 10 fold between the IC50 in the HAP1 MTAP-intact cell line and the HAP1 MTAP-deleted cell line) | – | 50 to 500 | – | ≥ 10000 | 500 to 5000 | A (a Ki ratio greater than or equal to 10 fold between the Ki in the presence of SAM and the Ki in the presence of MTA)
Cc1ncoc1COc1ccc2c(c1)CCN(C[C@@H](O)CNC(=O)c1ccc3c(c1)CCN(C(=O)c1ccc(Br)cc1)C3)C2 [Compound 493] | 50 to 500 | < 1000 | B* (an IC50 ratio greater than or equal to 3 fold but lower than 10 fold between the IC50 in the HAP1 MTAP-intact cell line and the HAP1 MTAP-deleted cell line) | – | < 50 | – | 1000 to 10000 | 500 to 5000 | A (a Ki ratio greater than or equal to 10 fold between the Ki in the presence of SAM and the Ki in the presence of MTA)
CC(=O)N1CCC(Nc2cc(C(=O)NC[C@H](O)CN3CCc4c(ccc(OCc5ocnc5C)c4C)C3)cc(N3CCN(C(C)=O)CC3)n2)CC1 [Compound 590, 2-(4-acetylpiperazin-1-yl)-6-[(1-acetylpiperidin-4-yl)amino]-N-[(2S)-2-hydroxy-3-{5-methyl-6-[(4-methyl-1,3-oxazol-5-yl)methoxy]-1,2,3,4-tetrahydroisoquinolin-2-yl}propyl]pyridine-4-carboxamide] | 50 to 500 | 1000 to 10000 | C* (an IC50 ratio of less than 3 fold between the IC50 in the HAP1 MTAP-intact cell line and the HAP1 MTAP-deleted cell line) | – | 50 to 500 | – | ≥ 10000 | 500 to 5000 | A (a Ki ratio greater than or equal to 10 fold between the Ki in the presence of SAM and the Ki in the presence of MTA)
O=C(NC[C@H](O)CN1CCc2cc(OCc3cnco3)c(Cl)cc2C1)c1ccnc(NC2CCC2)c1 [Compound 281, N-[(2S)-3-[7-chloro-6-(oxazol-5-ylmethoxy)-3,4-dihydro-1H-isoquinolin-2-yl]-2-hydroxy-propyl]-2-(cyclobutylamino)pyridine-4-carboxamide] | 500 to 5000 | 1000 to 10000 | C* (an IC50 ratio of less than 3 fold between the IC50 in the HAP1 MTAP-intact cell line and the HAP1 MTAP-deleted cell line) | ≥ 5000 | 50 to 500 | A (a Ki ratio greater than or equal to 10 fold between the Ki in the presence of SAM and the Ki in the presence of MTA) | ≥ 10000 | – | –
Cc1ncoc1COc1ccc2c(c1)CCN(C[C@@H](O)CNC(=O)c1cc(NC3CCC3)nc(N3CCN(C(=O)C(C)C)CC3)c1)C2 [Compound 463, 2-(cyclobutylamino)-N-[(2S)-2-hydroxy-3-{6-[(4-methyl-1,3-oxazol-5-yl)methoxy]-1,2,3,4-tetrahydroisoquinolin-2-yl}propyl]-6-[4-(2-methylpropanoyl)piperazin-1-yl]pyridine-4-carboxamide] | 50 to 500 | < 1000 | B* (an IC50 ratio greater than or equal to 3 fold but lower than 10 fold between the IC50 in the HAP1 MTAP-intact cell line and the HAP1 MTAP-deleted cell line) | – | 50 to 500 | – | < 1000 | 500 to 5000 | A (a Ki ratio greater than or equal to 10 fold between the Ki in the presence of SAM and the Ki in the presence of MTA)
